Test results from US20040152685A1, “Agents and methods for the prevention of initial onset and recurrence of existing cancers” (priority 2001, published 2004).
pIC50: −log10 of the molar value. “Also recorded” adds a separate entry of the source.

Experiments:
Assay type in all cases: cell-based
[1] = system: prostate cancer cell lines (LNCaP, DU145) and brain and/or nervous system cancer cell line (DAOY); assay: Cell proliferation of prostate and brain/nervous system cancer cell lines; conditions: DU145, DAOY cells
Description: (§1) In a multitude of experiments, using prostate cancer cell lines (both androgen-dependent (LNCaP), and androgen-independent (DU145) cells), and a brain and/or nervous system cancer cell line (DAOY), the present inventors have studied the effects of 2-ME and 16-ES on cell proliferation and the induction of apoptosis, in a number of ways.

[2] = system: prostate cancer cell lines (LNCaP, DU145) and brain and/or nervous system cancer cell line (DAOY); assay: Induction of apoptosis in prostate and brain/nervous system cancer cell lines; conditions: DU145, DAOY cells
Description: as §1

[3] = system: LNCaP cells; assay: Cell growth of LNCaP prostate cancer cells after treatment; conditions: for inhibition of growth of LNCaP cells: 72 hours of treatment, FIG. 7
Method: Cells were treated with either eugenol (0.25, 0.5, 0.75 or 1 mM) or 2-ME (0.5, 1, 2 or 3 mM) or both (0.25, 0.5, 0.75 or 1 mM of eugenol along with 0.5 mM of 2-ME). Cell growth was measured following 72 hours of treatment as described above.

[4] = system: DU145 cells; assay: Cell growth of DU145 prostate cancer cells after treatment; conditions: Homo sapiens, DU-145, FIG. 6, read-out: concentration necessary to see 50% inhibition of growth

| Compound | inhibition of cancerous cell growth [1] | pro-apoptotic effects [2] | inhibition of growth of LNCaP cells ([3]; 0.25 mM of eugenol) | pIC50 ([3]; Homo sapiens, LNCaP, read-out: concentration necessary to see 50% inhibition of growth) | pIC50 [4] | inhibition of growth of LNCaP cells ([3]; 0.5 mM of 2-ME) |
| --- | --- | --- | --- | --- | --- | --- |
| C[C@]12CC[C@@H]3c4ccc(O)cc4CC[C@H]3[C@@H]1C[C@H](O)[C@@H]2O [16-ES, 16-epiestriol] | does not | does not | – | – | – | – |
| C=CCc1ccc(O)c(OC)c1 [eugenol] | – | – | about 30% | ~3.12 | < 2.70 | – |
| COc1cc2c(cc1O)CC[C@@H]1[C@@H]2CC[C@]2(C)[C@@H](O)CC[C@@H]12 [2-ME, 2-methoxyoestradiol] | significantly inhibits cancerous cell growth; also recorded: inhibits the growth | has pro-apoptotic effects | – | – | – | about 20% |
